# From patent publication EP1152011A1, “PEPTIDES INHIBITING VASCULAR ENDOTHELIAL CELL MIGRATION” (KYOWA HAKKO KOGYO CO., LTD., priority 1999, dated 2000)
# Residues, ends and D or L forms follow the SMILES beside them.
# System: Swine aorta endothelial cells
# Assay: Measurement of activity inhibiting swine vascular endothelial cell migration
# Type: cell-based
# Conditions: test compound at 10 µmol/L; 6 hours pre-culture, cells scraped off with razor blade, then 24 hours culture; 0.1% bovine serum albumin-containing Dulbecco's modified Eagle medium; value ± SD
# Source text: Measurement of activity inhibiting swine vascular endothelial cell migration: Swine aorta endothelial cells (5th to 7th generations) were suspended in the 10% fetus calf serum-containing Dulbecco's modified Eagle medium and inoculated at a cell density of 32,000 cells/cm^2 in a 6-well plate, for culturing until the cells formed a single layer over the whole bottom of the culture dish. Subsequently, the culture broth was exchanged to the 0.1% bovine serum albumin-containing Dulbecco's modified Eagle medium containing a test compound at a concentration of 10 µmol/L, followed by culturing for 6 hours. Then, a part of the cells on the bottom of the culture dish was scraped off using a razor blade. Subsequently, the culture broth was exchanged to the 0.1% bovine serum albumin-containing Dulbecco's modified Eagle medium containing a test compound in a concentration of 10 µmol/L, followed by culturing for 24 hours. After immobilizing the cells, the number of the cells which had migrated on the bottom portion of the culture dish, where a part of the cells had been scraped off, was counted. The inhibition ratio of cell migration was calculated by the following equation. Inhibition ratio of cell migration (%) = (1 - the number of cells which had migrated in the presence of the test compound/the number of cells which had migrated in the absence of the test compound) × 100 [formula]
row,Structure (SMILES),Inhibition ratio of cell migration (%) ± SD [%]
1,"CSCC[C@H](NC(=O)[C@H](Cc1ccc(O)cc1)NC(=O)[C@@H](N)CCCNC(=N)N)C(=O)N[C@H](C(=O)N[C@H](C(=O)N[C@@H](CCCCN)C(=O)N[C@@H](CCCCN)C(=O)N[C@@H](CCCNC(=N)N)C(=O)N[C@@H](Cc1ccccc1)C(=O)N[C@@H](CCCCN)C(=O)N[C@@H](CO)C(=O)N[C@@H](CO)C(=O)N[C@@H](CCC(N)=O)C(=O)N[C@@H](Cc1ccccc1)C(=O)N[C@H](C(N)=O)[C@@H](C)O)C(C)C)[C@@H](C)O [Compound 11, H-Arg-Tyr-Met-Thr-Val-Lys-Lys-Arg-Phe-Lys-Ser-Ser-Gln-Phe-Thr-NH2] (H-RYMTVKKRFKSSQFT-NH2)",12.2±10.7
2,"CC[C@H](C)[C@H](NC(=O)[C@H](CCSC)NC(=O)[C@H](CCCNC(=N)N)NC(=O)[C@@H](NC(=O)[C@H](CCCNC(=N)N)NC(=O)[C@@H](NC(=O)[C@@H](NC(=O)[C@H](Cc1c[nH]cn1)NC(=O)CNC(=O)[C@H](CCCCN)NC(=O)CN)C(C)C)[C@@H](C)CC)[C@@H](C)O)C(=O)N[C@@H](CCC(N)=O)C(=O)N[C@@H](CCSC)C(=O)N[C@@H](CCC(=O)O)C(N)=O [Compound 9, H-Gly-Lys-Gly-His-Val-Ile-Arg-Thr-Arg-Met-Ile-Gln-Met-Glu-NH2] (H-GKGHVIRTRMIQME-NH2)",3.9±1.6
3,"CC[C@H](C)[C@H](NC(=O)[C@H](CCCNC(=N)N)NC(=O)[C@H](C)NC(=O)[C@H](CCCCN)NC(=O)[C@H](CCCCN)NC(=O)[C@H](CCCNC(=N)N)NC(=O)[C@H](CCC(N)=O)NC(=O)[C@@H](NC(=O)[C@@H](NC(=O)[C@H](CCC(=O)O)NC(=O)[C@@H]1CCCN1C(=O)[C@H](C)NC(=O)[C@@H]1CCCN1)[C@@H](C)O)C(C)C)C(=O)N[C@@H](CCCNC(=N)N)C(=O)N[C@@H](CCCCN)C(N)=O [Compound 10, H-Pro-Ala-Pro-Glu-Thr-Val-Gln-Arg-Lys-Lys-Ala-Arg-Ile-Arg-Lys-NH2] (H-PAPETVQRKKARIRK-NH2)",20.6±1.9
4,"CC(C)C[C@H](N)C(=O)N[C@H](C(=O)N[C@@H](CCC(=O)O)C(=O)N[C@@H](Cc1c[nH]c2ccccc12)C(=O)N[C@@H](CO)C(=O)N[C@@H](CCC(N)=O)C(=O)N[C@@H](Cc1c[nH]c2ccccc12)C(=O)N[C@@H](CO)C(=O)N[C@@H](CCC(=O)O)C(=O)N[C@@H](C)C(=O)N[C@@H](CC(N)=O)C(=O)N[C@@H](CCCCN)C(=O)N[C@@H](CO)C(=O)N[C@@H](C)C(=O)NCC(N)=O)[C@@H](C)O [Compound 5, H-Leu-Thr-Glu-Trp-Ser-Gln-Trp-Ser-Glu-Ala-Asn-Lys-Ser-Ala-Gly-NH2] (H-LTEWSQWSEANKSAG-NH2)",10.8±6.0
5,"CC[C@H](C)[C@H](NC(=O)[C@H](CCSC)NC(=O)[C@H](CCCNC(=N)N)NC(=O)[C@H](Cc1c[nH]cn1)NC(=O)[C@H](CCCNC(=N)N)NC(=O)[C@H](CCCCN)NC(=O)[C@H](CCCCN)NC(=O)[C@@H](N)CCSC)C(=O)N[C@@H](CCCCN)C(=O)N[C@@H](CCSC)C(=O)N[C@@H](CC(N)=O)C(=O)N1CCC[C@H]1C(=O)N[C@@H](C)C(=O)N[C@@H](CC(=O)O)C(=O)NCC(N)=O [Compound 8, H-Met-Lys-Lys-Arg-His-Arg-Met-Ile-Lys-Met-Asn-Pro-Ala-Asp-Gly-NH2] (H-MKKRHRMIKMNPADG-NH2)",7.2±1.2
6,"CSCC[C@H](NC(=O)[C@H](CCCNC(=N)N)NC(=O)[C@H](CCCCN)NC(=O)CNC(=O)[C@H](CCCCN)NC(=O)[C@@H](N)CC(=O)O)C(=O)N[C@@H](CCCNC(=N)N)C(=O)N[C@@H](CCC(N)=O)C(=O)N[C@@H](CCCNC(=N)N)C(=O)N[C@@H](CCSC)C(=O)N[C@@H](CC(C)C)C(=O)N[C@@H](CCCCN)C(=O)N[C@@H](C)C(=O)N[C@@H](CCC(N)=O)C(=O)N[C@@H](CC(C)C)C(N)=O [Compound 7, H-Asp-Lys-Gly-Lys-Arg-Met-Arg-Gln-Arg-Met-Leu-Lys-Ala-Gln-Leu-NH2] (H-DKGKRMRQRMLKAQL-NH2)",9.3±1.6
7,"CSCC[C@H](N)C(=O)N[C@H](C(=O)N[C@@H](CCC(=O)O)C(=O)N[C@@H](Cc1c[nH]c2ccccc12)C(=O)NCC(=O)N[C@@H](CCC(=O)O)C(=O)N[C@@H](Cc1c[nH]c2ccccc12)C(=O)N[C@@H](CC(=O)O)C(=O)N[C@@H](CCC(=O)O)C(=O)N[C@@H](C)C(=O)N[C@@H](CO)C(=O)N[C@@H](C)C(=O)N[C@H](C(=O)N[C@@H](C)C(=O)NCC(N)=O)[C@@H](C)O)[C@@H](C)O [Compound 4, H-Met-Thr-Glu-Trp-Gly-Glu-Trp-Asp-Glu-Ala-Ser-Ala-Thr-Ala-Gly-NH2] (H-MTEWGEWDEASATAG-NH2)",7.4±13.2
8,"CC[C@H](C)[C@H](NC(=O)[C@H](CO)NC(=O)[C@H](C)NC(=O)[C@@H]1CCCN1C(=O)[C@H](CO)NC(=O)[C@H](Cc1c[nH]c2ccccc12)NC(=O)[C@@H](NC(=O)[C@@H](NC(=O)[C@H](Cc1c[nH]c2ccccc12)NC(=O)[C@H](CCC(=O)O)NC(=O)[C@H](CO)NC(=O)[C@@H](N)CCSC)[C@@H](C)CC)[C@@H](C)O)C(=O)N[C@@H](CO)C(=O)N[C@@H](C)C(=O)NCC(N)=O [Compound 1, H-Met-Ser-Glu-Trp-Ile-Thr-Trp-Ser-Pro-Ala-Ser-Ile-Ser-Ala-Gly-NH2] (H-MSEWITWSPASISAG-NH2)",24.5±4.9
9,"CSCC[C@H](N)C(=O)N[C@@H](CCCNC(=N)N)C(=O)N1CCC[C@H]1C(=O)N[C@@H](Cc1c[nH]c2ccccc12)C(=O)N[C@H](C(=O)N[C@@H](C)C(=O)N[C@@H](Cc1c[nH]c2ccccc12)C(=O)N[C@@H](CO)C(=O)N[C@@H](CCC(=O)O)C(=O)N[C@@H](C)C(=O)N[C@H](C(=O)N[C@@H](CCCCN)C(=O)N[C@@H](CC(C)C)C(=O)N[C@@H](C)C(=O)NCC(N)=O)[C@@H](C)O)[C@@H](C)O [Compound 6, H-Met-Arg-Pro-Trp-Thr-Ala-Trp-Ser-Glu-Ala-Thr-Lys-Leu-Ala-Gly-NH2] (H-MRPWTAWSEATKLAG-NH2)",5.7±8.0
10,"CC(C)C[C@H](NC(=O)[C@H](CO)NC(=O)[C@@H](N)CC(C)C)C(=O)N[C@@H](Cc1c[nH]c2ccccc12)C(=O)N[C@@H](CO)C(=O)N[C@@H](CCC(=O)O)C(=O)N[C@@H](Cc1c[nH]c2ccccc12)C(=O)N[C@@H](CO)C(=O)N[C@@H](CC(=O)O)C(=O)N[C@@H](C)C(=O)N[C@@H](CO)C(=O)N[C@H](C(=O)N[C@H](C(=O)N[C@@H](C)C(=O)NCC(N)=O)[C@@H](C)O)C(C)C [Compound 2, H-Leu-Ser-Leu-Trp-Ser-Glu-Trp-Ser-Asp-Ala-Ser-Val-Thr-Ala-Gly-NH2] (H-LSLWSEWSDASVTAG-NH2)",41.5±2.1
11,"C[C@H](NC(=O)[C@H](C)NC(=O)[C@H](CO)NC(=O)[C@H](Cc1c[nH]c2ccccc12)NC(=O)[C@@H]1CCCN1C(=O)[C@H](CO)NC(=O)[C@H](Cc1c[nH]c2ccccc12)NC(=O)[C@H](CC(N)=O)NC(=O)[C@H](CO)NC(=O)[C@@H](N)Cc1ccc(O)cc1)C(=O)N[C@@H](CO)C(=O)N[C@@H](CO)C(=O)N[C@@H](CO)C(=O)N[C@H](C(=O)N[C@@H](C)C(=O)N[C@@H](CC(=O)O)C(N)=O)[C@@H](C)O [Compound 3, H-Tyr-Ser-Asn-Trp-Ser-Pro-Trp-Ser-Ala-Ala-Ser-Ser-Ser-Thr-Ala-Asp-NH2] (H-YSNWSPWSAASSSTAD-NH2)",12.3±10.0
